Legend:
[1] = tested on: diabetic mice (C57BLKS/J-Lepr^db/Lepr^db); assay: Daily ip exendin-4 in diabetic mice; type: in vivo, mouse
From the text: Animals. Four month old Wistar rats from the Wistar colony in the NIA (Baltimore, Md.) were used for the acute experiments of the effects of exendin-4 and GLP-1 (see Example 1). They had been maintained on standard lab chow and fed ad libitum. For the long-term experiments, diabetic mice (C57BLKS/J-Lepr^db/Lepr^db) lacking the leptin receptor, and their non-diabetic littermates were purchased at 4 weeks of age from Jackson Laboratories (Bar Harbor, Me.). They were housed two per cage and also were fed ad libitum. The same mice were caged together for the duration of the study. Wistar rats are caged on wire while the bedding for the mice was a paper based product, “Carefresh” (Absorption Co., Bellingham, Wash.).
Subsequently, whole blood glucose levels, taken from a retro-orbital sinus, were determined in the mice using a Glucometer Elite (Bayer). This regimen was continued for 12–13 weeks. […] Animals were weighed weekly. After one week of the regimen blood samples were again taken from a retro-orbital sinus for determination of insulin and glucose levels. At the end of the regimen, fasting blood samples were obtained for glucose and insulin levels and whole blood containing EDTA was assayed for hemoglobin A1c (Hb A1c) on the same day from the four groups.
Assays. Plasma glucose was measured by the glucose oxidase method (Wang et al., 1997). Insulin was measured by RIA as previously described (See Example 1). Hb A1c was assayed using a BIO-RAD (Herculas Calif.) DiaSTAT machine which uses low pressure cation exchange chromatography in conjunction with gradient elution to separate hemoglobin subtypes and variants from hemolyzed blood. The separated hemoglobin fractions were monitored by means of absorption of light at 415 nm.

rat acinar cells = settings: Malhotra et al. 1992, cited from earlier work
[2] = tested on: beta cells of the pancreas; settings: Goke et al., 1993; cited from earlier work
insulin mRNA = assay: Slot-blot quantitation of insulin mRNA in pancreata and islets; type: in vivo, rat; settings: young and old animals, 48 hrs infusion, P<0.01
From the text: (§1) The rats were implanted with an Alzet micro-osmotic pump (Alza Corp., Palo Alto, Calif.) in the interscapular region for 48 hrs. […] Control animals received normal saline in their pumps and received their infusion for the same length of time.
(§2) After an overnight fast, animals were sacrificed, pancreata were removed and frozen in liquid nitrogen as quickly as possible. RNA was extracted by homogenization in guanidinium isothiocyanate, followed by ultracentrifugation on a 5.7 M cesium chloride cushion (Glisin et al., 1974; Chigwin et al., 1979). Poly-A RNA was then prepared from total RNA by affinity chromatography using oligo (dT) columns (Biolabs INC, Beverly, Mass.). RNA was quantified by spectrophotometric analysis at […]. Slot-blot analysis using poly-A RNA was used for quantitation of mRNA levels of glucokinase, which is the main glucose sensor of the beta cell (Matschinsky, 1990), the three hexokinases, GLUT2, the major glucose transporter of the beta cell (Mueckler, 1990), and insulin. Four micrograms of poly-A RNA were diluted in 50 μl TE buffer (Tris-HCL 10 mM, EDTA 1 mM, pH 7.4), 20 μl of 37% formaldehyde and 20 μl of 10× SSC. Samples were incubated at 60° C. for 15 min and then diluted with 1 ml of ice-cold 10× SSC (1×SCC=0.15 M NaCl+0.015 sodium citrate). […]

glucokinase mRNA = assay: Slot-blot quantitation of glucokinase mRNA in pancreata and islets; type: in vivo, rat; settings: young (P<0.05), much more so in old animals (P<0.001)
From the text: as §1, §2

pancreata = assay: Pancreas weight after continuous GLP-1 infusion; type: in vivo, rat
From the text: The pancreata of treated animals weighed 26% more than the pancreata of control animals.

AR42J cells = assay: Protein tyrosine phosphorylation in AR42J cells; type: cell-based, rat; settings: 5 min treatment
Method: Tyrosine Phosphorylation Studies. […] Then the medium was removed and fresh KRBB was added, followed by placing the cell on a 37° C. hot plate for 5 min. After addition of various reagents (see FIG. 24) for 5 min the reaction was terminated by submersion of the dishes in liquid nitrogen. The frozen cells were scraped and lysed in RIPA buffer. […] The blots were developed using the ECL chemiluminescence detection system (Amersham).

Row | Compound | blood sugar lowering at lower concentration compared with larger amount ([1]; 1 nmol/kg ip for one week, diabetic mice) | weight of the animal for the first 3–4 days of injection ([1]; back to same as NaCl-treated by the seventh day) | cage bedding 24 hours after changing vs NaCl-treated diabetic animals (urination) ([1]; diabetic mice, 9 weeks treatment) | fasting glucose levels ([1]; diabetic mice, 12–13 weeks, NaCl 517±59, p<0.005) | fasting insulin levels ([1]; diabetic mice, 12–13 weeks, NaCl 707.2±169.7, p<0.02) | Hb A1c ([1]; diabetic mice, daily ip for 12–13 weeks, NaCl-treated 8.8%, p<0.0001) | fasting glucose level after one week of treatment ([1]; diabetic mice, daily ip, NaCl-treated 238±51, p<0.002) | deaths just after receiving exendin-4 ([1]; diabetic mice, day fourteen) | fasting insulin levels after one week vs NaCl ([1]; diabetic mice, p<0.002) | body weight at 13–14 weeks of treatment ([1]; diabetic mice, NaCl-treated 38.7 g) | effects of the daily injections on behavior ([1]; long-term daily ip) | total amylase released (rat acinar cells; CCK alone vs 10^−8 M exendin-4 and CCK together) | concentration at which increased cAMP was seen (rat acinar cells) | lowest concentrations increasing cAMP and insulin secretion [2] | insulin mRNA vs controls (insulin mRNA) | glucokinase mRNA levels (glucokinase mRNA) | pancreas weight increase over control animals (pancreata) | effect on protein tyrosine phosphorylation (AR42J cells)
1 | exendin-4 | just as effective | drops | obviously drier | 278.7 ± 30.0 mg/dL | 4,600±1,114 pmol/l | 4.7% | 90 ± 11 mg/dL | one of the diabetic mice died | higher | 46.7 g | no untoward effects | 16% | 10^−8 M | 10^−10 M | – | – | – | –
2 | CC[C@H](C)[C@H](NC(=O)[C@H](Cc1ccccc1)NC(=O)[C@H](CCC(=O)O)NC(=O)[C@H](CCCCN)NC(=O)[C@H](C)NC(=O)[C@H](C)NC(=O)[C@H](CCC(N)=O)NC(=O)CNC(=O)[C@H](CCC(=O)O)NC(=O)[C@H](CC(C)C)NC(=O)[C@H](Cc1ccc(O)cc1)NC(=O)[C@H](CO)NC(=O)[C@H](CO)NC(=O)[C@@H](NC(=O)[C@H](CC(=O)O)NC(=O)[C@H](CO)NC(=O)[C@@H](NC(=O)[C@H](Cc1ccccc1)NC(=O)[C@@H](NC(=O)CNC(=O)[C@H](CCC(=O)O)NC(=O)[C@H](C)NC(=O)[C@@H](N)Cc1c[nH]cn1)[C@@H](C)O)[C@@H](C)O)C(C)C)C(=O)N[C@@H](C)C(=O)N[C@@H](Cc1c[nH]c2ccccc12)C(=O)N[C@@H](CC(C)C)C(=O)N[C@H](C(=O)N[C@@H](CCCCN)C(=O)NCC(=O)N[C@@H](CCCNC(=N)N)C(N)=O)C(C)C [GLP-1] | – | – | – | – | – | – | – | – | – | – | – | – | – | – | increased | significantly increased | 26% | did not have any effect

Source: patent publication US7056734B1, “Differentiation of non-insulin producing cells into insulin producing cells by GLP-1 or exendin-4 and uses thereof” (The United States of America as represented by the …, priority 1998, dated 2006)
